How the values were obtained:
Assay in all cases: radiometric filter-binding kinase assay, Kinase HotSpot
Conditions in all cases: compound 0.5 µM; ATP 10 µM
[1] = molecular target: AURKA (human) (UniProt O14965)
[2] = molecular target: AURKB (human) (UniProt Q96GD4)
[3] = molecular target: CLK2 (human) (UniProt P49760)
[4] = molecular target: DAPK2 (human) (UniProt Q9UIK4)
[5] = molecular target: EPHB1 (human) (UniProt P54762)
[6] = molecular target: ERBB2 (human) (UniProt P04626)
[7] = molecular target: FGFR1 (human) (UniProt P11362)
[8] = molecular target: FGFR2 (human) (UniProt P21802)
[9] = molecular target: FLT1 (human) (UniProt P17948)
[10] = molecular target: FYN (human) (UniProt P06241)
[11] = molecular target: GRK6 (human) (UniProt P43250)
Chain of GRK6 (human) (P43250 whole entry, looked up): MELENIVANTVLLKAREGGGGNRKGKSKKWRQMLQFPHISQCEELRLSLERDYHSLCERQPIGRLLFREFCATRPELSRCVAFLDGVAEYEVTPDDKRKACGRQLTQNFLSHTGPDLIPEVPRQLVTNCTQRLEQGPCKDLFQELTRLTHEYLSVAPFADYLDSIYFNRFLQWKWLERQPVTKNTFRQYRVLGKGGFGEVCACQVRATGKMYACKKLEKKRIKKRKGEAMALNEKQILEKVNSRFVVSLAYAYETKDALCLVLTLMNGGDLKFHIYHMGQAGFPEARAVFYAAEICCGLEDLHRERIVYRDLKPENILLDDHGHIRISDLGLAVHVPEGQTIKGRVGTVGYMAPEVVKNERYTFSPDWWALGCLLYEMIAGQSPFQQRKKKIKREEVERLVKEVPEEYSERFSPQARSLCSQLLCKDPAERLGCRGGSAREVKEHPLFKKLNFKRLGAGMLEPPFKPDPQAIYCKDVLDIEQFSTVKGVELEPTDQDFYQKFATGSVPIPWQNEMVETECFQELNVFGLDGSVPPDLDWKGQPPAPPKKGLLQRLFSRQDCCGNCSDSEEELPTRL

[12] = molecular target: GSK3A (human) (UniProt P49840)
[13] = molecular target: INSR (human) (UniProt P06213)
Chain of INSR (human) (P06213 whole entry, looked up): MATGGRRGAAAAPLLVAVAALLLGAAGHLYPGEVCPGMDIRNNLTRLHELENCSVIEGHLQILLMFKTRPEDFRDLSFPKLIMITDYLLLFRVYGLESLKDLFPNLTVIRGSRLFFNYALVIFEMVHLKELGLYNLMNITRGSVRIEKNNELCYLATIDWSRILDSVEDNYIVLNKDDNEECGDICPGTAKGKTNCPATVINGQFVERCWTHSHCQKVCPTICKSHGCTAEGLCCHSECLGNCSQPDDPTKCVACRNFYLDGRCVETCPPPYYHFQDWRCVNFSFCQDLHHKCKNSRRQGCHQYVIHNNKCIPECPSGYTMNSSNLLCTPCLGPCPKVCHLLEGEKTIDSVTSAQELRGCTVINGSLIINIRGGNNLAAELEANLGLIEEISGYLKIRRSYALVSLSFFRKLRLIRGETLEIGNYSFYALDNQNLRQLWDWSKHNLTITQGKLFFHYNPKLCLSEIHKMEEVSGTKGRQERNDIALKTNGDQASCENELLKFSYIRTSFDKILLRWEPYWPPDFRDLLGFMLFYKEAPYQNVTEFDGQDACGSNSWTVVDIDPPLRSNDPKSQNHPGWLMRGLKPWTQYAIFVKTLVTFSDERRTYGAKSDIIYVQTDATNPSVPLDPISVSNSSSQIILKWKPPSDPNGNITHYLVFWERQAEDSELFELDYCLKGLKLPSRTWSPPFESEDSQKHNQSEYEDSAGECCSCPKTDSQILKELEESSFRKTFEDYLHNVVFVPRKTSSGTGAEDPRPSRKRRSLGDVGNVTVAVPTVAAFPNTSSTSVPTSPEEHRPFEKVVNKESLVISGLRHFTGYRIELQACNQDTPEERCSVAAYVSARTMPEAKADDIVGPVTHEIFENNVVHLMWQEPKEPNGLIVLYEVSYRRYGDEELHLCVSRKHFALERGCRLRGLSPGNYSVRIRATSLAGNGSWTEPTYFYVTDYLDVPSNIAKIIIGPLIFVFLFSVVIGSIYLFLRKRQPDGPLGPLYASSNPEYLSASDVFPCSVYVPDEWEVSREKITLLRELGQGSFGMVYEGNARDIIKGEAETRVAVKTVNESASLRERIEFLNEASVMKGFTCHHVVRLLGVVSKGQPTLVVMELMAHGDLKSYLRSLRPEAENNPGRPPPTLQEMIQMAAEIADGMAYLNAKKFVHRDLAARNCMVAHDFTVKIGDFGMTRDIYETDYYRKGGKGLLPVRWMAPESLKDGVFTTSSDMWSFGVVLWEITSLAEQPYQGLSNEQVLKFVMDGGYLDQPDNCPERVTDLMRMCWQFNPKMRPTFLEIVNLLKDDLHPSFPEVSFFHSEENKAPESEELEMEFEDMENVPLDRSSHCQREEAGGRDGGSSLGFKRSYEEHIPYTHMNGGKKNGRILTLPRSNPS

[14] = molecular target: INSRR (human) (UniProt P14616)
[15] = molecular target: JAK2 JH1 JH2 (human) (UniProt O60674)
[16] = molecular target: MAP3K8 (human) (UniProt P41279)
[17] = molecular target: MAPK1 (human) (UniProt P28482)
[18] = molecular target: MAPK12 (human) (UniProt P53778)
Chain of MAPK12 (human) (P53778 whole entry, looked up): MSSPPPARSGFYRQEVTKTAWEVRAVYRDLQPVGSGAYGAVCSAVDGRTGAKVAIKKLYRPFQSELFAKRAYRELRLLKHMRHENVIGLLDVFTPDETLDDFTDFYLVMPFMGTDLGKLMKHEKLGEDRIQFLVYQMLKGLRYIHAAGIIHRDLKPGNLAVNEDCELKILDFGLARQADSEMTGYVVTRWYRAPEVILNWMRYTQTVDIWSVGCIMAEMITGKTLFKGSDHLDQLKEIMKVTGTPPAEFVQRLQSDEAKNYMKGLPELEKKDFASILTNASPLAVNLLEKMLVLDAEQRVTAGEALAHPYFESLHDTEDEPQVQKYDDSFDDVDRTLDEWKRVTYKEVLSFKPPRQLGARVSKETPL

[19] = molecular target: MAPK13 (human) (UniProt O15264)
[20] = molecular target: MAPK14 (human) (UniProt Q16539)
Chain of MAPK14 (human) (Q16539 whole entry, looked up): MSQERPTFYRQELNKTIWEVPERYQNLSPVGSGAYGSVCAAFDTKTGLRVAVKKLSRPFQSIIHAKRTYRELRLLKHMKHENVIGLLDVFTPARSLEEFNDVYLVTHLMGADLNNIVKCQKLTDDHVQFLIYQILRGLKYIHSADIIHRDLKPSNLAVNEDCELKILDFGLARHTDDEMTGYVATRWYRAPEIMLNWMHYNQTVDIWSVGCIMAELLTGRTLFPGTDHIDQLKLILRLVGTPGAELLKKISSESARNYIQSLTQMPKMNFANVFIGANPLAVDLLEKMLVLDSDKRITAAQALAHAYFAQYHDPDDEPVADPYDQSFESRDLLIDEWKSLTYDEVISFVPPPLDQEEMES

[21] = molecular target: MAPKAPK5 (human) (UniProt Q8IW41)
[22] = molecular target: MARK1 (human) (UniProt Q9P0L2)
[23] = molecular target: MARK2 (human) (UniProt Q7KZI7)
[24] = molecular target: MUSK (human) (UniProt O15146)
[25] = molecular target: PAK3 (human) (UniProt O75914)
Chain of PAK3 (human) (O75914 whole entry, looked up): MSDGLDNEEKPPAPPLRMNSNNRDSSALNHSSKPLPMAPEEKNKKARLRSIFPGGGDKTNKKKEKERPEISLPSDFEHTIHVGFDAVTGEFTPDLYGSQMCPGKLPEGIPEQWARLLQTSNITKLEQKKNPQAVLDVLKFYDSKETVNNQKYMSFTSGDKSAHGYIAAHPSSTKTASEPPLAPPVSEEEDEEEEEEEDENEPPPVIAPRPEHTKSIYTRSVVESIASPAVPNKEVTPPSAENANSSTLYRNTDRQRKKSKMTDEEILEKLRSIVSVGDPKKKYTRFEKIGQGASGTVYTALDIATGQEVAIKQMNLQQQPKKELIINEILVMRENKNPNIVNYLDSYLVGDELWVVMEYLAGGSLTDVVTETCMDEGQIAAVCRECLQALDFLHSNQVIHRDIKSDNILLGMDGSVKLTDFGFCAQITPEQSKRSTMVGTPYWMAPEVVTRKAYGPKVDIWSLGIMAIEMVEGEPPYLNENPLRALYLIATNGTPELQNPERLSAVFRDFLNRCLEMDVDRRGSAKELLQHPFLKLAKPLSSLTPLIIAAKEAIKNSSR

[26] = molecular target: PDGFRB (human) (UniProt P09619)
[27] = molecular target: PDPK1 (human) (UniProt O15530)
[28] = molecular target: PHKG2 (human) (UniProt P15735)
[29] = molecular target: PIM2 (human) (UniProt Q9P1W9)
[30] = molecular target: PLK1 (human) (UniProt P53350)
[31] = molecular target: PLK2 (human) (UniProt Q9NYY3)
[32] = molecular target: PRKACA (human) (UniProt P17612)
[33] = molecular target: PRKCB1 (human) (UniProt P05771)
[34] = molecular target: PRKCE (human) (UniProt Q02156)
[35] = molecular target: PRKD3 (human) (UniProt O94806)
[36] = molecular target: RPS6KA1 KD1 KD2 (human) (UniProt Q15418)
Chain of RPS6KA1 KD1 KD2 (human) (Q15418 whole entry, looked up): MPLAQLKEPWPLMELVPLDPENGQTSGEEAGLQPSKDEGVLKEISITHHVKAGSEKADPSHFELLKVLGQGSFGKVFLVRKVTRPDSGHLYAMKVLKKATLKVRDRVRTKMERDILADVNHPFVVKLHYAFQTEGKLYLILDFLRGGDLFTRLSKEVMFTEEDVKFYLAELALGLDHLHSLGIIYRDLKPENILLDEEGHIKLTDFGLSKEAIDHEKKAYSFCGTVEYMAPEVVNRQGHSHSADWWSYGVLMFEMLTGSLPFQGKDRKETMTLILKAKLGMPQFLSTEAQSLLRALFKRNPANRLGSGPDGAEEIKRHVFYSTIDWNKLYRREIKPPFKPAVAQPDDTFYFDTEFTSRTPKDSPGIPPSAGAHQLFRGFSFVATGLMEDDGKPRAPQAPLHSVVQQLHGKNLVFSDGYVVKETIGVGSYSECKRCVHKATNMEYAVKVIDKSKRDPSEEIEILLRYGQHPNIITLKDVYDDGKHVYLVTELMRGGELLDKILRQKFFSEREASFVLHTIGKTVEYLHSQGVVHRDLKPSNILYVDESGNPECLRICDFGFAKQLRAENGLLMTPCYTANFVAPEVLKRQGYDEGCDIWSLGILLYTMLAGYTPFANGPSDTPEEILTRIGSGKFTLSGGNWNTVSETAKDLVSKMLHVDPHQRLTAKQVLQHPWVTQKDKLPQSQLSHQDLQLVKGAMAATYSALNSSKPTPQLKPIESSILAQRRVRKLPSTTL

[37] = molecular target: RPS6KB1 (human) (UniProt P23443)
[38] = molecular target: TBK1 (human) (UniProt Q9UHD2)
[39] = molecular target: TYRO3 (human) (UniProt Q06418)
[40] = molecular target: ULK2 (human) (UniProt Q8IYT8)
[41] = molecular target: WNK2 (human) (UniProt Q9Y3S1)
[42] = molecular target: TSSK2 (human) (UniProt Q96PF2)

Chain of EPHB1 (human) (P54762 whole entry, looked up): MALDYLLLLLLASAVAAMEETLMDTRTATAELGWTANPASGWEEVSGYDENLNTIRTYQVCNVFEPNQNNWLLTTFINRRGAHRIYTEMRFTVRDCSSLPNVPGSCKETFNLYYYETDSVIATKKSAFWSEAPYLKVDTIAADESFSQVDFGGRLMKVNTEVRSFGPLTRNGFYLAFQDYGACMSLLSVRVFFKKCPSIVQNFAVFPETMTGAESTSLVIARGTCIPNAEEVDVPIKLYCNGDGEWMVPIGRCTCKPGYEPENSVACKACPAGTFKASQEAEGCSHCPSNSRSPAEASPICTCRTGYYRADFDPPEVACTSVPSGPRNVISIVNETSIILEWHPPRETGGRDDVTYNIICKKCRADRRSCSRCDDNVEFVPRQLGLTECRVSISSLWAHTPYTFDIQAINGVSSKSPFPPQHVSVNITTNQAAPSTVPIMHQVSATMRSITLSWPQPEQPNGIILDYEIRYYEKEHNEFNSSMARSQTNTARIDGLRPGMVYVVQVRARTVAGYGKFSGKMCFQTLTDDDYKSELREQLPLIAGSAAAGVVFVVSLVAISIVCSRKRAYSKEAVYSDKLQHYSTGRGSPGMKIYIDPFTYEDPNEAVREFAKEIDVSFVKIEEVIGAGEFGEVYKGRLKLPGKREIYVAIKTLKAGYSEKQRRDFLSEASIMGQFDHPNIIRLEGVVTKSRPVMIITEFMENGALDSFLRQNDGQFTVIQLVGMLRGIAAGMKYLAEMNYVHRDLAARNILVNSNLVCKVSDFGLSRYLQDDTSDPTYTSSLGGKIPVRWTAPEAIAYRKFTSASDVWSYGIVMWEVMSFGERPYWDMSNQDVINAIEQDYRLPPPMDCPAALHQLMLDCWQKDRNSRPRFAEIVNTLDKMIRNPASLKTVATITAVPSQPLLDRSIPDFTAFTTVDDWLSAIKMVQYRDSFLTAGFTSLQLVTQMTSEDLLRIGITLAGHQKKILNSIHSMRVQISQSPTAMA

`COc1ccc2c(c[n+](C)c3c4cc5c(cc4ccc23)OCO5)c1OC` gave a residual activity [1] of 107%, a residual activity [2] of 99.2% and a residual activity [3] of 90.6%. It also gave a residual activity [4] of 93.9%, a residual activity [5] of 90.4% and a residual activity [6] of 101%. The residual activity [7] was 96%, the residual activity [8] was 101% and the residual activity [9] was 88.8%. It also gave a residual activity [10] of 101%, a residual activity [11] of 104% and a residual activity [12] of 105%. The residual activity [13] was 94.9%, the residual activity [14] was 91.8% and the residual activity [15] was 102%. For the same compound, the residual activity [16] was 91.3%, the residual activity [17] was 101% and the residual activity [18] was 100%. The residual activity [19] was 97.3%, the residual activity [20] was 94.1% and the residual activity [21] was 83.5%. It also gave a residual activity [22] of 91.4%, a residual activity [23] of 95% and a residual activity [24] of 98.2%. The residual activity [25] was 96.6%, the residual activity [26] was 93.5% and the residual activity [27] was 98.2%. For the same compound, the residual activity [28] was 94.8%, the residual activity [29] was 105% and the residual activity [30] was 93.6%. For the same compound, the residual activity [31] was 97.6%, the residual activity [32] was 100% and the residual activity [33] was 100%. The residual activity [34] was 93.6%, the residual activity [35] was 99.3% and the residual activity [36] was 104%. It also gave a residual activity [37] of 99.8%, a residual activity [38] of 96.2% and a residual activity [39] of 95.7%. It also gave a residual activity [40] of 92% and a residual activity [41] of 98.5%.

Compound `Cc1ccc(NC2=CC(=O)c3sc(C)nc3C2=O)cc1` has a residual activity [1] of 110%, a residual activity [2] of 89.8% and a residual activity [3] of 83.6%. The residual activity [4] was 91.9%, the residual activity [6] was 94.2% and the residual activity [7] was 85.3%. For the same compound, the residual activity [8] was 91%, the residual activity [9] was 89.8% and the residual activity [10] was 95.6%. It also gave a residual activity [11] of 96.8%, a residual activity [12] of 102% and a residual activity [13] of 92.6%. It also gave a residual activity [14] of 90%, a residual activity [15] of 99.1% and a residual activity [16] of 90.2%. The residual activity [17] was 91.4%, the residual activity [18] was 99.3% and the residual activity [19] was 105%. For the same compound, the residual activity [20] was 92.4%, the residual activity [21] was 108% and the residual activity [22] was 89.6%. The residual activity [23] was 91.1%, the residual activity [24] was 89.1% and the residual activity [25] was 97.5%. It also gave a residual activity [26] of 94.5%, a residual activity [27] of 88.7% and a residual activity [28] of 96.3%. For the same compound, the residual activity [29] was 103%, the residual activity [30] was 86.8% and the residual activity [31] was 95.1%. For the same compound, the residual activity [32] was 95.9%, the residual activity [33] was 95.7% and the residual activity [34] was 96.3%. The residual activity [35] was 93.5%, the residual activity [36] was 102% and the residual activity [37] was 97.2%. It also gave a residual activity [38] of 94%, a residual activity [42] of 98.3% and a residual activity [39] of 95.3%. The residual activity [40] was 96.9% and the residual activity [41] was 97.7%.

Compound `Nc1ncnc2[nH]nc(Nc3ccc(F)cc3)c12` has a residual activity [1] of 92.3%, a residual activity [2] of 96.9% and a residual activity [3] of 92.4%. For the same compound, the residual activity [4] was 85.5%, the residual activity [6] was 101% and the residual activity [7] was 91.2%. It also gave a residual activity [8] of 97.2%, a residual activity [9] of 87.3% and a residual activity [10] of 93%. The residual activity [11] was 103%, the residual activity [12] was 88.6% and the residual activity [13] was 98.5%. For the same compound, the residual activity [14] was 96.9%, the residual activity [15] was 105% and the residual activity [16] was 99.7%. The residual activity [17] was 80.8%, the residual activity [18] was 94.2% and the residual activity [19] was 104%. It also gave a residual activity [20] of 79.5%, a residual activity [21] of 80.9% and a residual activity [22] of 93.8%. The residual activity [23] was 87%, the residual activity [24] was 93.9% and the residual activity [25] was 104%. For the same compound, the residual activity [26] was 98%, the residual activity [27] was 102% and the residual activity [28] was 101%. For the same compound, the residual activity [29] was 89.3%, the residual activity [30] was 99.9% and the residual activity [31] was 101%. For the same compound, the residual activity [32] was 96.8%, the residual activity [33] was 95.9% and the residual activity [34] was 99.5%. It also gave a residual activity [35] of 86.7%, a residual activity [36] of 82.2% and a residual activity [37] of 94.3%. It also gave a residual activity [38] of 99.6%, a residual activity [42] of 90.8% and a residual activity [39] of 100%. It also gave a residual activity [40] of 110% and a residual activity [41] of 110%.

`c1ccc(-c2n[nH]c3c2oc2ccccc23)cc1` was tested, and the residual activity [1] was 103%, the residual activity [2] was 50.8% and the residual activity [3] was 94.8%. For the same compound, the residual activity [4] was 71.2%, the residual activity [5] was 103% and the residual activity [6] was 104%. For the same compound, the residual activity [7] was 85.9%, the residual activity [8] was 97% and the residual activity [9] was 94.5%. For the same compound, the residual activity [10] was 104%, the residual activity [11] was 102% and the residual activity [12] was 91.4%. It also gave a residual activity [13] of 94.4%, a residual activity [14] of 104% and a residual activity [15] of 89.8%. For the same compound, the residual activity [16] was 105%, the residual activity [17] was 118% and the residual activity [18] was 100%. It also gave a residual activity [19] of 109%, a residual activity [20] of 102% and a residual activity [21] of 103%. It also gave a residual activity [22] of 98.6%, a residual activity [23] of 92.9% and a residual activity [24] of 72.6%. For the same compound, the residual activity [25] was 89.2%, the residual activity [27] was 94.7% and the residual activity [28] was 112%. It also gave a residual activity [29] of 104%, a residual activity [30] of 106% and a residual activity [31] of 102%. It also gave a residual activity [32] of 97.5%, a residual activity [33] of 103% and a residual activity [34] of 86%. It also gave a residual activity [35] of 99.6%, a residual activity [36] of 100% and a residual activity [37] of 99.9%. It also gave a residual activity [38] of 105%, a residual activity [42] of 97.6% and a residual activity [39] of 87.6%. The residual activity [40] was 96.4% and the residual activity [41] was 102%.

Work on `N#CC(C#N)=C(N)/C(C#N)=C/c1ccc(O)cc1` yielded a residual activity [1] of 89.6%, a residual activity [2] of 91% and a residual activity [3] of 100%. It also gave a residual activity [4] of 95.7%, a residual activity [5] of 88.3% and a residual activity [6] of 90.1%. The residual activity [7] was 95.3%, the residual activity [8] was 102% and the residual activity [9] was 90.7%. For the same compound, the residual activity [10] was 98.4%, the residual activity [11] was 107% and the residual activity [12] was 91.1%. The residual activity [13] was 94.2%, the residual activity [14] was 99.9% and the residual activity [15] was 102%. It also gave a residual activity [16] of 96%, a residual activity [17] of 101% and a residual activity [18] of 92.6%. The residual activity [19] was 103%, the residual activity [20] was 104% and the residual activity [21] was 94.2%. The residual activity [22] was 111%, the residual activity [23] was 91.3% and the residual activity [24] was 103%. For the same compound, the residual activity [25] was 98.4%, the residual activity [26] was 98.8% and the residual activity [27] was 99.4%. For the same compound, the residual activity [28] was 96.7%, the residual activity [29] was 88.2% and the residual activity [30] was 60.8%. The residual activity [31] was 99.9%, the residual activity [32] was 100% and the residual activity [33] was 114%. The residual activity [34] was 89.3%, the residual activity [35] was 91.9% and the residual activity [36] was 93.8%. For the same compound, the residual activity [37] was 89.5%, the residual activity [38] was 91.1% and the residual activity [42] was 94.6%. For the same compound, the residual activity [39] was 99.3% and the residual activity [40] was 105%.
